Experimental data from ChEMBL document CHEMBL1201862, “PubChem BioAssay data set” (2004).
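96-well plates; 48 h exposure; 5 concentrations. Endpoints by linear interpolation between flanking doses. Not reached: highest tested concentration assigned. GI50 = concentration required for 50% inhibition of growth.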 Activity calls are given as the source filed them. Cut-off read from the data, not from the text of the source: active = GI50 up to about 1.1 µM and inactive = higher.

Legend:
Test in all cases: growth of human tumour cells (NCI), 48 h
NCI-H23 = system: NCI-H23
NCI-H522 = system: NCI-H522
RPMI-8226 = system: RPMI-8226
UACC-62 = system: UACC-62
COLO 205 = system: COLO 205
MCF7 = system: MCF7
CAKI-1 = system: CAKI-1
RXF 393 = system: RXF 393
T47D = system: T47D
SK-MEL-28 = system: SK-MEL-28
ACHN = system: ACHN
HL-60 = system: HL-60
A498 = system: A498
OVCAR-8 = system: OVCAR-8
SF-539 = system: SF-539
HCT-15 = system: HCT-15
SF-268 = system: SF-268
HOP-62 = system: HOP-62
DU-145 = system: DU-145
HT-29 = system: HT-29
OVCAR-3 = system: OVCAR-3
MOLT-4 = system: MOLT-4
M14 = system: M14
SK-OV-3 = system: SK-OV-3
EKVX = system: EKVX
SF-295 = system: SF-295
SW-620 = system: SW-620
HOP-92 = system: HOP-92
MDA-N = system: MDA-N
BT-549 = system: BT-549
SN12C = system: SN12C
A549 = system: A549
HCC 2998 = system: HCC 2998
UO-31 = system: UO-31
KM12 = system: KM12
TK-10 = system: TK-10
OVCAR-4 = system: OVCAR-4
Hs-578T = system: Hs-578T
SK-MEL-2 = system: SK-MEL-2
HCT-116 = system: HCT-116
SNB-75 = system: SNB-75
Malme-3M = system: Malme-3M
SR = system: SR
SK-MEL-5 = system: SK-MEL-5
K562 = system: K562
UACC-257 = system: UACC-257
NCI-H460 = system: NCI-H460
SNB-19 = system: SNB-19
IGROV-1 = system: IGROV-1
NCI/ADR-RES = system: NCI/ADR-RES
PC-3 = system: PC-3
U-251 = system: U-251
MDA-MB-435 = system: MDA-MB-435
786-0 = system: 786-0
CCRF-CEM = system: CCRF-CEM
LOX IMVI = system: LOX IMVI
OVCAR-5 = system: OVCAR-5
MDA-MB-231 = system: MDA-MB-231
NCI-H226 = system: NCI-H226

With `CCCNc1ncnc2[nH]ncc12` the GI50 (NCI-H23) was > 100 µM (inactive), the GI50 (NCI-H522) was > 100 µM (inactive) and the GI50 (RPMI-8226) was > 100 µM (inactive). For the same compound, the GI50 (UACC-62) was > 100 µM (inactive), the GI50 (COLO 205) was > 100 µM (inactive) and the GI50 (MCF7) was 91.4 µM (inactive). For the same compound, the GI50 (CAKI-1) was > 100 µM (inactive), the GI50 (RXF 393) was > 100 µM (inactive) and the GI50 (T47D) was > 100 µM (inactive). The GI50 (SK-MEL-28) was > 100 µM (inactive), the GI50 (ACHN) was > 100 µM (inactive) and the GI50 (HL-60) was > 100 µM (inactive). For the same compound, the GI50 (A498) was > 100 µM (inactive), the GI50 (OVCAR-8) was > 100 µM (inactive) and the GI50 (SF-539) was > 100 µM (inactive). The GI50 (HCT-15) was > 100 µM, the GI50 (SF-268) was > 100 µM (inactive) and the GI50 (HOP-62) was > 100 µM (inactive). For the same compound, the GI50 (DU-145) was > 100 µM (inactive), the GI50 (HT-29) was > 100 µM (inactive) and the GI50 (OVCAR-3) was > 100 µM (inactive). For the same compound, the GI50 (MOLT-4) was > 100 µM (inactive), the GI50 (M14) was > 100 µM (inactive) and the GI50 (SK-OV-3) was > 100 µM (inactive). For the same compound, the GI50 (EKVX) was > 100 µM (inactive), the GI50 (SF-295) was > 100 µM (inactive) and the GI50 (SW-620) was > 100 µM (inactive). The GI50 (HOP-92) was 87.5 µM (inactive), the GI50 (MDA-N) was > 100 µM (inactive) and the GI50 (BT-549) was > 100 µM (inactive). The GI50 (SN12C) was > 100 µM (inactive), the GI50 (A549) was > 100 µM (inactive) and the GI50 (HCC 2998) was > 100 µM (inactive). For the same compound, the GI50 (UO-31) was > 100 µM (inactive), the GI50 (KM12) was > 100 µM (inactive) and the GI50 (TK-10) was > 100 µM (inactive). The GI50 (OVCAR-4) was > 100 µM (inactive), the GI50 (Hs-578T) was > 100 µM (inactive) and the GI50 (SK-MEL-2) was > 100 µM (inactive). The GI50 (HCT-116) was > 100 µM (inactive), the GI50 (SNB-75) was > 100 µM (inactive) and the GI50 (Malme-3M) was > 100 µM (inactive). For the same compound, the GI50 (SR) was > 100 µM (inactive), the GI50 (SK-MEL-5) was > 100 µM (inactive) and the GI50 (K562) was > 100 µM (inactive). For the same compound, the GI50 (UACC-257) was > 100 µM (inactive), the GI50 (NCI-H460) was > 100 µM (inactive) and the GI50 (SNB-19) was > 100 µM (inactive). The GI50 (IGROV-1) was > 100 µM (inactive), the GI50 (NCI/ADR-RES) was > 100 µM (inactive) and the GI50 (PC-3) was > 100 µM (inactive). The GI50 (U-251) was > 100 µM (inactive), the GI50 (MDA-MB-435) was > 100 µM (inactive) and the GI50 (786-0) was > 100 µM (inactive). The GI50 (CCRF-CEM) was > 100 µM (inactive), the GI50 (LOX IMVI) was > 100 µM (inactive) and the GI50 (OVCAR-5) was > 100 µM (inactive). For the same compound, the GI50 (MDA-MB-231) was > 100 µM (inactive).
`COC(=O)C1=CO[C@@H](OC2OC(CO)C(O)C(O)C2O)[C@@H]2[C@H](C)[C@@H](O)[C@@H](O)[C@]12O` (stereo not given in full) was tested, and the GI50 (NCI-H23) was > 100 µM (inactive), the GI50 (NCI-H522) was > 100 µM (inactive) and the GI50 (RPMI-8226) was > 100 µM (inactive). For the same compound, the GI50 (UACC-62) was > 100 µM (inactive), the GI50 (COLO 205) was > 100 µM (inactive) and the GI50 (MCF7) was > 100 µM (inactive). For the same compound, the GI50 (CAKI-1) was 13.4 µM (inactive), the GI50 (RXF 393) was > 100 µM (inactive) and the GI50 (NCI-H226) was > 100 µM (inactive). For the same compound, the GI50 (T47D) was > 100 µM (inactive), the GI50 (SK-MEL-28) was > 100 µM (inactive) and the GI50 (ACHN) was > 100 µM (inactive). The GI50 (HL-60) was > 100 µM (inactive), the GI50 (A498) was > 100 µM (inactive) and the GI50 (OVCAR-8) was > 100 µM (inactive). The GI50 (SF-539) was > 100 µM (inactive), the GI50 (HCT-15) was > 100 µM and the GI50 (SF-268) was > 100 µM (inactive). For the same compound, the GI50 (HOP-62) was > 100 µM (inactive), the GI50 (DU-145) was > 100 µM (inactive) and the GI50 (HT-29) was > 100 µM (inactive). For the same compound, the GI50 (OVCAR-3) was > 100 µM (inactive), the GI50 (MOLT-4) was > 100 µM (inactive) and the GI50 (M14) was > 100 µM (inactive). For the same compound, the GI50 (SK-OV-3) was > 100 µM (inactive), the GI50 (EKVX) was > 100 µM (inactive) and the GI50 (SF-295) was > 100 µM (inactive). For the same compound, the GI50 (SW-620) was > 100 µM (inactive), the GI50 (HOP-92) was > 100 µM (inactive) and the GI50 (MDA-N) was > 100 µM (inactive). For the same compound, the GI50 (BT-549) was > 100 µM (inactive), the GI50 (SN12C) was > 100 µM (inactive) and the GI50 (A549) was > 100 µM (inactive). The GI50 (HCC 2998) was > 100 µM (inactive), the GI50 (UO-31) was > 100 µM (inactive) and the GI50 (KM12) was > 100 µM (inactive). For the same compound, the GI50 (TK-10) was > 100 µM (inactive), the GI50 (Hs-578T) was > 100 µM (inactive) and the GI50 (SK-MEL-2) was > 100 µM (inactive). The GI50 (HCT-116) was > 100 µM (inactive), the GI50 (SNB-75) was 33 µM (inactive) and the GI50 (Malme-3M) was > 100 µM (inactive). For the same compound, the GI50 (SR) was > 100 µM (inactive), the GI50 (SK-MEL-5) was > 100 µM (inactive) and the GI50 (UACC-257) was > 100 µM (inactive). For the same compound, the GI50 (SNB-19) was > 100 µM (inactive), the GI50 (IGROV-1) was > 100 µM (inactive) and the GI50 (NCI/ADR-RES) was > 100 µM (inactive). The GI50 (PC-3) was > 100 µM (inactive), the GI50 (U-251) was > 100 µM (inactive) and the GI50 (MDA-MB-435) was > 100 µM (inactive). For the same compound, the GI50 (786-0) was > 100 µM (inactive), the GI50 (CCRF-CEM) was > 10 µM (inactive) and the GI50 (LOX IMVI) was > 100 µM (inactive). The GI50 (OVCAR-5) was > 100 µM (inactive) and the GI50 (MDA-MB-231) was 34.8 µM (inactive).
With `Cc1ccc(C2(O)c3ccccc3C(=O)N(C)C2(O)c2ccc(C)cc2)cc1` (stereo not given) the GI50 (NCI-H23) was > 100 µM (inactive), the GI50 (NCI-H522) was > 100 µM (inactive) and the GI50 (RPMI-8226) was > 100 µM (inactive). The GI50 (UACC-62) was > 100 µM (inactive), the GI50 (COLO 205) was > 100 µM (inactive) and the GI50 (MCF7) was 38.9 µM (inactive). The GI50 (CAKI-1) was 68.1 µM (inactive), the GI50 (RXF 393) was 32.3 µM (inactive) and the GI50 (T47D) was > 100 µM (inactive). The GI50 (SK-MEL-28) was > 100 µM (inactive), the GI50 (HL-60) was 16.1 µM (inactive) and the GI50 (A498) was > 100 µM (inactive). The GI50 (OVCAR-8) was 25.5 µM (inactive), the GI50 (SF-539) was 45.1 µM (inactive) and the GI50 (HCT-15) was 52 µM. For the same compound, the GI50 (SF-268) was 21.2 µM (inactive), the GI50 (HOP-62) was 22 µM (inactive) and the GI50 (DU-145) was > 100 µM (inactive). For the same compound, the GI50 (HT-29) was 46.8 µM (inactive), the GI50 (OVCAR-3) was > 100 µM (inactive) and the GI50 (MOLT-4) was 12.8 µM (inactive). The GI50 (M14) was 62.7 µM (inactive), the GI50 (SK-OV-3) was > 100 µM (inactive) and the GI50 (EKVX) was 32.8 µM (inactive). For the same compound, the GI50 (SF-295) was 38.1 µM (inactive), the GI50 (SW-620) was 34.5 µM (inactive) and the GI50 (HOP-92) was 18.6 µM (inactive). For the same compound, the GI50 (MDA-N) was > 100 µM (inactive), the GI50 (BT-549) was 91.8 µM (inactive) and the GI50 (SN12C) was 58.3 µM (inactive). The GI50 (A549) was > 100 µM (inactive), the GI50 (HCC 2998) was 79.3 µM (inactive) and the GI50 (UO-31) was 57.8 µM (inactive). For the same compound, the GI50 (KM12) was 29.9 µM (inactive), the GI50 (TK-10) was > 100 µM (inactive) and the GI50 (OVCAR-4) was 18.2 µM (inactive). The GI50 (Hs-578T) was 22.6 µM (inactive), the GI50 (SK-MEL-2) was > 100 µM (inactive) and the GI50 (HCT-116) was 49.2 µM (inactive). The GI50 (Malme-3M) was > 100 µM (inactive), the GI50 (SR) was 2.39 µM (inactive) and the GI50 (SK-MEL-5) was 33.5 µM (inactive). For the same compound, the GI50 (K562) was 28.4 µM (inactive), the GI50 (UACC-257) was > 100 µM (inactive) and the GI50 (NCI-H460) was 22.6 µM (inactive). For the same compound, the GI50 (SNB-19) was 21.5 µM (inactive), the GI50 (IGROV-1) was > 100 µM (inactive) and the GI50 (NCI/ADR-RES) was 39.4 µM (inactive). The GI50 (PC-3) was > 100 µM (inactive), the GI50 (U-251) was 17.4 µM (inactive) and the GI50 (MDA-MB-435) was > 100 µM (inactive). For the same compound, the GI50 (786-0) was 37 µM (inactive), the GI50 (CCRF-CEM) was 15.4 µM (inactive) and the GI50 (LOX IMVI) was 25.5 µM (inactive). For the same compound, the GI50 (OVCAR-5) was > 100 µM (inactive) and the GI50 (MDA-MB-231) was 28.2 µM (inactive).
